Data taken from patent publication US20110305637A1, “RADIOLABELLED PDE10 LIGANDS” (Janssen Pharmaceutica N.V., priority 2009, published 2011).

What was measured:
[1] = Plasma metabolite analysis; format: in vivo; conditions: rat plasma, 60 min p.i.
Protocol: The metabolic stability of [^18F]B-1 was studied in normal rats by determination of the relative amounts of parent tracer and metabolites in the blood at 1 hour p.i. of the tracer. After intravenous (i.v.) administration of about 19 MBq [^18F]B-1 via tail vein under anesthesia (2.5% Isoflurane in O2 at 1 L/min flow rate), rats were sacrificed by decapitation at 60 min p.i. (n=2). Blood was collected in heparin containing tubes (4.5 mL LH PST tubes; BD vacutainer, BD, Franklin Lakes, N.J., USA) and immediately centrifuged for 10 min at 3000 rpm to separate the plasma. […] After passing through UV detector (254 nm), the HPLC eluate was collected as 1-mL fractions using an automatic fraction collector and the radioactivity of these fractions was measured in the γ-counter.
The metabolic stability was assessed in plasma collected from normal rats (n=2) 60 min post injection of [^18F]B-1 using RP-HPLC. […]
The metabolic stability of [^18F]B-2 was studied in normal rats by determination of the relative amounts of parent tracer and metabolites in the blood at 1 hour p.i. of the tracer. […] After passing through UV detector (254 nm), the HPLC eluate was collected as 1-mL fractions using an automatic fraction collector and the radioactivity of these fractions was measured in the γ-counter. […]

[2] = Brain metabolite analysis (cerebrum, cerebellum, not perfused); format: in vivo, rat; conditions: 60 min p.i.
Protocol: (§1) From the same animals that were used for plasma analysis, brain was also dissected and rinsed with saline (Mini Plasco®, Braun, Melsungen, Germany) to rinse off the blood. Cerebrum and cerebellum were collected separately and homogenized in 3 mL and 2 mL of acetonitrile, respectively, for about 3 min. A volume of 1 mL of this homogenate was diluted with an equal volume of water and a part of this homogenate was filtered through 0.22 μm filter (Millex®-GV, Millipore, Ireland). About 0.5 mL of the filtrate was spiked with 5 μL of non-radioactive B-1 solution (1 mg/mL) and then injected on to HPLC, which was connected with an XBridge™ column (C18, […], 3 mm×100 mm, Waters) eluted with mixtures of 0.05 M sodium acetate buffer pH 5.5 and acetonitrile (60:40 v/v) at a flow rate of 0.8 mL/min. Similar to the plasma analysis, the HPLC eluate was collected as 1-mL fractions after passing through UV detector, and the radioactivity in the fractions was measured using the automated gamma counter.
(§2) Based on their higher hydrophilicity we can expect that these radiometabolites may not cross the blood brain barrier (BBB). However, in order to rule out the presence or entry of these metabolites to the brain, we have also analyzed cerebrum and cerebellum samples of rats after isolation and subsequent homogenization at 60 min after injection of [^18F]B-1 (n=2).
as §1, with “of non-radioactive B-2 solution (1” for “of non-radioactive B-1 solution (1”, “and acetonitrile (65:35 v/v) at” for “and acetonitrile (60:40 v/v) at”, “passing through the UV detector,” for “passing through UV detector,”
as §2, with “BBB.” for “the blood brain barrier (BBB).”, “[^18F]B-2” for “[^18F]B-1”

## [18F]CCCn1cc(-c2ccncc2)c(-c2ccc(OCc3ccc4ccccc4n3)cc2)n1 [[^18F]B-1]
[1]
  Relative percentage of apolar metabolite(s)/components: 1.6 ± 1.5%
[2]; rat cerebellum
  Relative percentage of apolar metabolite(s): 1.4 ± 0.9%
  Relative percentage of polar metabolite(s): 15.3 ± 1.8%
[2]; rat cerebrum
  Relative percentage of apolar metabolite(s): 0.3 ± 0.0%
  Relative percentage of polar metabolite(s): 6.6 ± 2.9%
